The conditions of series [1]: for Normal melting temperature: Crystal, DTA.
A short description of series [2]: Molar enthalpy of transition or fusion. The conditions noted are these: Crystal; DSC.

± gives the expanded uncertainty stated by the source.

For the compound `CCCCCCCCCCCCCCCC(=O)OCC(COC(=O)CCCCCCCCCCCCCCC)OC(=O)CCCCCCCCCCCCCCC` [1,2,3-propanetriyl tri(hexadecanoate)], the Normal melting temperature in series [1] was 66.29 ± 0.65 °C. The “Molar enthalpy of transition or fusion” value in series [2] is 38.3 ± 2.1 kcal/mol.

`CCCCCCCCCCCC(=O)O` [dodecanoic acid]: in series [1], the Normal melting temperature was found to be 45.4 ± 0.65 °C. Also, the “Molar enthalpy of transition or fusion” value in series [2] turned out to be 7.99 ± 0.621 kcal/mol.

For the compound `CCCCCCCCCCO` [decan-1-ol], the Triple point temperature in series [1] (Crystal 2, DSC) stood at 275.64 ± 4.1 K. Also, the Normal melting temperature in series [1] worked out at 6.69 ± 0.55 °C. Moreover, the “Molar enthalpy of transition or fusion” value in series [2] is 7.06 ± 0.932 kcal/mol.

Take `CCCCCCCCCCCCO` [dodecan-1-ol]: the Normal melting temperature in series [1] turned out to be 24.63 ± 0.39 °C. In addition, the “Molar enthalpy of transition or fusion” value in series [2] stood at 7.53 ± 2.13 kcal/mol.

For the compound `CCCCCCCCCCCCCCCCCC(=O)O` [octadecanoic acid], the Normal melting temperature in series [1] came to 70.48 ± 0.49 °C. Also, the “Molar enthalpy of transition or fusion” value in series [2] amounted to 13.4 ± 1.12 kcal/mol.

`CCCCCCCCCC(=O)O` [decanoic acid]: the Normal melting temperature in series [1] was 32.07 ± 0.49 °C. Besides, in series [2], the “Molar enthalpy of transition or fusion” value was determined as 6.25 ± 0.287 kcal/mol.

As to `CCCCCCCCCCCCCC(=O)O` [tetradecanoic acid], the Normal melting temperature in series [1] was 55.90 ± 0.73 °C. Moreover, the “Molar enthalpy of transition or fusion” value in series [2] was 9.92 ± 1.63 kcal/mol.

In the case of `CCCCCCCCCCCCCCCC(=O)O` [hexadecanoic acid], the Normal melting temperature in series [1] was 64.02 ± 0.55 °C. Besides, in series [2], the “Molar enthalpy of transition or fusion” value turned out to be 11.7 ± 0.645 kcal/mol.

Regarding `CCCCCCCCCCCCCCO` [1-tetradecanol], the Normal melting temperature in series [1] amounted to 37.56 ± 0.91 °C. For the same compound, in series [2], the “Molar enthalpy of transition or fusion” value is 10.4 ± 1.24 kcal/mol.
